The values that follow come from US7786093B2, “Antistress agent” (Health Wellness Foods Corporation, priority 2004, dated 2010).

Assay [1] concerns human mononuclear cells. In words: Suppression by nigerose of the DEX-induced decrease in growth of ConA- or PHA-stimulated human mononuclear cells (WST-1 absorbance). Type of assay: cell-based. The following applies: for Absorbance (at 450 nm to 630 nm): DEX 10 nM, 24 h. As to the method:
After a blood sample obtained from an adult was diluted two-fold with PBS, a Ficoll-Paque Plus solution (manufactured by Amersham Corporation) was added slowly to make double layers (blood diluted two-fold with PBS Ficoll-Paque Plus solution=4:3), which were centrifuged at the conditions of 400×g, 20° C. and 40 minutes. A mononuclear cell fraction present in the middle layer was recovered, and this mononuclear cell fraction washed twice with a 10-fold volume of PBS. The obtained mononuclear cells were suspended in an RPMI 1640 culture medium (manufactured by GIBCO BRL Corporation) to obtain a suspension of peripheral blood mononuclear cells. The number of cells in the suspension of peripheral blood mononuclear cells was measured with an automatic blood cell counter (manufactured by Sysmex Co., Ltd., Type CDA-500), and the mononuclear cells were suspended in RPMI 1640 culture medium so as to make the number of cells at a concentration of 2.0×10^6 cells/mL. This suspension was inoculated at 50 μL per one well on a 96-well tissue culture plate. To the inoculated suspension was added a solution of ConA or PHA in the RPMI 1640 culture medium in 50 μL per one well so as to make a final concentration of 2.0 μg/mL or 5.0 μg/mL, respectively. […] The mononuclear cells were incubated at 37° C. for 24 hours in a 5% CO2 incubator. At 4 hours before completion of the incubation, a solution of WST-1 (manufactured by Dojindo Laboratories Inc.), dissolved in 0.4 mM 1-methoxy PMS (manufactured by Dojindo Laboratories Inc.) to make a concentration of 10 mM, was added in 10 μL per one well, and the absorbance at a measurement wavelength of 450 nm and a reference wavelength of 630 nm was measured at the time of completion of the incubation.
WST-1, when taken into living cells, is reduced by a intracellular mitochondrial dehydrogenase to produce water-soluble formazan. Because the amount of the thus-produced formazan is proportional to the number of the living cells, the measurement of the absorbance of formazan can be made as an index of the cell growth.

Assay [2] concerns human mononuclear cells. In words: IFN-γ production by ConA- or PHA-stimulated mononuclear cells with DEX (ELISA). In kind it is cell-based. The following applies: DEX 10 nM, 24 h. The procedure:
(a) In a manner similar to that in Example 1, mononuclear cells were prepared from blood of an adult, and the cultivation was initiated at a concentration of 5.0×10^5 mononuclear cells/mL. In a manner similar to that in Example 1, ConA or PHA as a cell stimulatory factor was added to the culture in 50 μL per one well so as to make a final concentration of 2.0 μg/mL or 5.0 μg/mL, respectively, thereby inducing cytokine production. […] After completion of the incubation, the amount of IFN-γ in the culture supernatant was measured by the ELISA.
The determination by the ELISA is shown in the following.
(§1) A 2 μg/mL solution of a mouse anti-human IFN-γ antibody (manufactured by Endogen Inc.) prepared in a borate buffer solution was added in 50 μL per one well on a 96-well ELISA plate, and the plate was allowed to stand at 4° C. for a day to adhere the mouse anti-human IFN-γ antibody to each well. The above-mentioned culture supernatant was added in 50 μL per one well on the ELISA plate adhering the mouse anti-human IFN-γ antibody, and the plate was allowed to stand at room temperature for 90 minutes, thereby binding the IFN-γ in the culture supernatant to the mouse anti-human IFN-γ antibody adhered on the plate. After washing the plate, a 0.5 μg/mL solution of a biotin-labeled mouse anti-human IFN-γ antibody (manufactured by Endogen Inc.) prepared in a borate buffer solution was added thereto in 100 μL per one well to bind to the IFN-γ bound with the mouse anti-human IFN-γ antibody adhered on the plate. After washing out an unbound biotin-labeled mouse anti-human IFN-γ antibody, a solution of Avidin-HRP (manufactured by BD PharMingen Inc.) diluted 1000-fold in a borate buffer solution was added thereto in 100 μL per one well to bind to the biotin-labeled mouse anti-human IFN-γ antibody bound with the IFN-γ. After washing out an excess of Avidin-HRP, a phosphate buffer solution containing 0.006 V/V % of hydrogen peroxide and 0.1 W/V % of orthophenylenediamine was added thereto in 100 μL per one well to allow to react at room temperature for 15 minutes, and then the reaction was stopped by addition of 1.5 N sulfuric acid. The absorbance at a measurement wavelength of 492 nm and a reference wavelength of 630 nm was measured, and the concentration of the IFN-γ in the culture supernatant was obtained from a calibration curve prepared with a recombinant IFN-γ.

Assay [3] concerns human mononuclear cells. In words: IL-12 and IFN-γ production by mononuclear cells stimulated with heat-killed Lactobacillus plantarum L137, with DEX (ELISA). In kind it is cell-based. The note with it: for IFN-γ / IL-12: DEX 10 nM, Lactobacillus plantarum L137 1.0 μg/mL, 24 h. The procedure: as §1
To the culture was added a cell stimulatory factor, which was heated dead body cells of Lactobacillus plantarum L137, so as to make a final concentration of […]. […] After completion of the incubation, the amounts of IL-12 and IFN-γ in the culture supernatant were measured by the ELISA.
A general note: ELISA stands for enzyme-linked immunosorbent assay.

The test system of assay [4] is BALB/c mice. Put plainly: Thymic and splenic atrophy due to DEX in mice. In kind it is in vivo. The note with it: control group (commercial feed), DEX 200 μg/mouse i.p., 24 h, female BALB/c mice. The procedure: Female BALB/c mice (8 weeks old) were divided into a group fed with a commercially available feed (control group) and a group fed with a commercially available feed mixed with a nigerooligosaccharide liquid sugar (Nigero S: content of nigerooligosaccharide: 30.8% by weight; manufactured by Takeda Food Products, Ltd.) at a concentration of 5% by weight (nigerooligosaccharide group). […] After 24 hours of the administration, the thymus and spleen of each mouse were excised, and the weights of the excised thymus and spleen were measured.

For assay [5], the system named is spleen cells of BALB/c mice. In words: Final test: cytokine production of spleen cells from DEX-administered mice given nigerooligosaccharide in drinking water (ELISA). Type of assay: in vivo. The note with it: DEX 60 μg/mouse i.p., ion-exchanged water as drinking water. The procedure:
The prepared spleen cells were suspended in an RPMI 1640 culture medium so as to make a concentration of 5.0×10^6 cells/mL. This suspension was inoculated in 100 μL per one well on a 96-well tissue culture plate, and further a solution of a cell stimulatory factor, (1) PHA or (2) LPS, dissolved in the RPMI 1640 culture medium so as to make a final concentration of 12.5 μg/mL or 20 μg/mL, respectively, was added in 100 μL per one well. The spleen cells were cultivated at 37° C. for 24 hours in a 5% CO2 incubator, and the concentrations of cytokines in the culture supernatant, IL-4 and IFN-γ for the foregoing (1) or IL-10 and TNF-α for the foregoing (2), were measured by the ELISA. The amount of IFN-γ was measured on the basis of the ELISA described in Example 2. The amounts of IL-4, IL-10 and TNF-α were measured in a manner similar to the ELISA described in Example 2, except that the IFN-γ in the ELISA described in Example 2 was replaced by IL-4, IL-10 or TNF-α.
Next, in this test, to 14 weeks old, female BALB/c mice (6 mice per one group) was given as a drinking water ion-exchanged water or a 1 W/V % solution of a highly pure nigerooligosaccharide (19.8% by weight of nigerose, 36.5% by weight of a trisaccharide fraction mainly composed of nigerosylglucose, 40.2% by weight of a tetra- or more saccharide fraction mainly composed of nigerosylmaltose, and 3.5% by weight of glucose) in ion-exchanged water, and the mice were fed with a commercially available feed. […] After 24 hours of the administration, the spleen was excised, and spleen cells were cultivated at the same conditions as those in the preliminary test, and the concentrations of cytokines in the culture supernatant were measured.

Assay [6] relates to human mononuclear cells. Put plainly: Activated apoptosis of mononuclear cells (ssDNA Apoptosis ELISA kit). Type of assay: cell-based. The following applies: for Absorbance (415 nm), degree of apoptosis: 24 h. As to the method: In a manner similar to that in Example 1, mononuclear cells were prepared from blood of an adult, and the cultivation was initiated at a concentration of 5.0×10^5 mononuclear cells/mL in a manner similar to that in Example 1. To the culture was added ConA or a hemolytic streptococcus preparation OK-432 (picibanil, manufactured by Chugai Pharmaceutical Co., Ltd.) as a cell stimulatory factor, so as to make a final concentrations of 2.0 μg/mL or 1.0 μg/mL, respectively. At this time, nigerose was added to each of the culture groups so as to make a concentration of 1.0 μg/mL and 10 μg/mL, where a nigerose-free control group was provided to each of the culture groups. The mononuclear cells were incubated at 37° C. for 24 hours in a 5% CO2 incubator. After completion of the incubation, apoptosis cells were fixed with an ssDNA Apoptosis ELISA kit (manufactured by Chemicon International, Inc.) which could specifically detect only the apoptosis cells, treated with a DNA-denaturing agent, then stained, and the absorbance (415 nm) was measured to quantify the degree of apoptosis.

Where [7] appears, read: nigerose 0 μg/mL, ConA 2.0 μg/mL.
[8] abbreviates: nigerose 0 μg/mL, PHA 5.0 μg/mL.
Where [9] appears, read: nigerose 1 μg/mL, ConA 2.0 μg/mL.
[10] abbreviates: nigerose 1 μg/mL, PHA 5.0 μg/mL.
Setting [11] is: nigerose 10 μg/mL, ConA 2.0 μg/mL.
Where [12] appears, read: nigerose 10 μg/mL, PHA 5.0 μg/mL.
Setting [13] is: nigerose 100 μg/mL, ConA 2.0 μg/mL.
[14] abbreviates: nigerose 100 μg/mL, PHA 5.0 μg/mL.

Structures are written as SMILES.

In the case of `C[C@@H]1C[C@H]2[C@@H]3CCC4=CC(=O)C=C[C@]4(C)[C@@]3(F)[C@@H](O)C[C@]2(C)[C@@]1(O)C(=O)CO` [DEX, Dexamethasone], the “Absorbance (at 450 nm to 630 nm)” value in assay [1] (setting [7]) worked out at 0.286 ± 0.004. Moreover, the “Absorbance (at 450 nm to 630 nm)” value in assay [1] (setting [8]) is on record as 0.299 ± 0.004. Moreover, the “Amount of IFN-γ production” value in assay [2] (setting [7]) is 0.106 ± 0.046 ng/mL. For the same molecule, the “Amount of IFN-γ production” value in assay [2] (setting [8]) was 0.119 ± 0.022 ng/mL. Also, the IFN-γ in assay [3] (nigerose 0 μg/mL) is recorded as 1.748 ± 0.307 ng/mL. In assay [4], this molecule displayed a Weight of spleen of 78.3 ± 19.3 mg and a Weight of thymus of 28.8 ± 10.3 mg. Further, in assay [5] (LPS), the “IL-10 concentration in the culture supernatant” value is 0.021 ± 0.011 ng/mL and the “TNF-α concentration in the culture supernatant” value is 0.373 ± 0.062 ng/mL. In assay [5] (PHA), the “IFN-γ concentration in the culture supernatant” value amounted to 0.059 ± 0.027 ng/mL and the “IL-4 concentration in the culture supernatant” value came out at 2.1 ± 0.8 pg/mL.
As for `OC[C@H]1O[C@H](O[C@H]2[C@H](O)[C@@H](CO)OC(O)[C@@H]2O)[C@H](O)[C@@H](O)[C@@H]1O` (some centres unmarked) [Nigerose, nigerose], the “decrease in the growth of mononuclear cells due to DEX” value in assay [1] (addition of nigerose, ConA or PHA stimulation) was “significantly suppressed concentration-dependently”. In addition, the “Absorbance (at 450 nm to 630 nm)” value stood at 0.289 ± 0.004 in assay [1] (setting [9]); 0.290 ± 0.002 in assay [1] (setting [10]); 0.307 ± 0.003 in assay [1] (setting [11]); 0.305 ± 0.009 in assay [1] (setting [12]); 0.319 ± 0.004 in assay [1] (setting [13]); 0.319 ± 0.007 in assay [1] (setting [14]). Moreover, the “Amount of IFN-γ production” value was 0.075 ± 0.070 ng/mL in assay [2] (setting [9]); 0.144 ± 0.022 ng/mL in assay [2] (setting [10]); 0.136 ± 0.095 ng/mL in assay [2] (setting [11]); 0.219 ± 0.095 ng/mL in assay [2] (setting [12]); 0.365 ± 0.053 ng/mL in assay [2] (setting [13]); 0.320 ± 0.038 ng/mL in assay [2] (setting [14]). Besides, in assay [3] (addition of nigerose, Tables 2 and 3), the “decrease of IL-12 and IFN-γ due to DEX” value is given as “significantly suppressed concentration-dependently”. For the same molecule, the IFN-γ in assay [3] (nigerose 0.1 μg/mL) was 1.895 ± 0.816 ng/mL; in assay [3] (nigerose 1 μg/mL) it was 1.866 ± 0.890 ng/mL; in assay [3] (nigerose 10 μg/mL), 2.677 ± 1.000 ng/mL. The IL-12 was 0.093 ± 0.021 ng/mL in assay [3] (nigerose 0.1 μg/mL), 0.130 ± 0.042 ng/mL in assay [3] (nigerose 1 μg/mL) and 0.171 ± 0.016 ng/mL in assay [3] (nigerose 10 μg/mL). The “Absorbance (415 nm), degree of apoptosis” value in assay [6] (nigerose 1.0 μg/mL, ConA 2.0 μg/mL) is 1.631 ± 0.175; in assay [6] (nigerose 1.0 μg/mL, OK-432 1.0 μg/mL), 1.549 ± 0.276; in assay [6] (nigerose 1.0 μg/mL, culture solution (no cell stimulatory factor)) it was 1.113 ± 0.053; in assay [6] (setting [11]) it was 1.372 ± 0.165; in assay [6] (nigerose 10 μg/mL, OK-432 1.0 μg/mL), 1.767 ± 0.203; in assay [6] (nigerose 10 μg/mL, culture solution (no cell stimulatory factor)), 1.134 ± 0.065. Moreover, the “effect on the apoptosis” value in assay [6] (nigerose-added group) is recorded as “suppressive effect”.
